In patent US20250114354A1, “COMBINATION TREATMENT REGIMENS - SMARCA2 DEGRADER WITH PD-1 INHIBITORS” (PRELUDE THERAPEUTICS INCORPORATED, priority 2023, published 2025):
Entries after “also recorded” stand apart in the source; their conditions may differ.

How the values were obtained:
[1] = system: T cells (human PBMCs co-cultured with SMARCA4 deleted NCI-H1299 cells); experiment: Flow cytometry of T cell activation markers in co-culture of NCI-H1299 cells and human PBMCs; assay type: cell-based; conditions: Formula (I) combined with Pembrolizumab, FIG. 1A
From the text: Human peripheral blood mononuclear cells (PBMCs) were co-cultured with NCI-H1299 cells (SMARCA4 deleted NSCLC) with Pembrolizumab and/or Formula (I). The cell samples from co-culture were stained for CD3 (T cell marker), CD8 (T cell marker), and CD25 (T cell activation marker) and analyzed by flow cytometry to determine percentages of cells with marker positive populations.
(§1) H1299 (CRL-5803) and H1975 (CRL-5908) were purchased from the American […]. Human Mononuclear Cells (PBMC) (HUMANPBMC-0001989) were purchased from BioIVT. NCI-H1299, NCI-H1975 and all CT26 cells were cultured in RPMI-1640 (ATCC, 30-2001) supplemented with 10% FBS (Gibco, 26140-079) and 1× penicillin-streptomycin (Thermofisher, 15140122). Human Peripheral Bloogd Mononuclear Cells (PBMCs) were cultured in RPMI-1640, 20% FBS, 100U/ml Human Recombinant IL-2 (Gibco, PHC0027) and 1× penicillin-streptomycin. All cells were maintained at 37° C. in 5% CO2 in a humidified incubator.
Samples from co-culture were collected in Eppendorf tubes and 500 ul of PBS was added. The samples were centrifuged (300 g, 5 minutes) to wash. Supernatant was removed and the pellet was resuspended in 200 ul FACS buffer. Samples were placed on ice for 15 minutes to block. After blocking, the samples were centrifuged (300 g, 5 minutes). […]

[2] = system: IFN-gamma, IL-2 and Granzyme B in co-culture of NCI-H1299 cells and human PBMCs; experiment: Cytokine analysis (MSD U-PLEX) of co-culture supernatant; assay type: cell-based; conditions: Formula (I) combined with Pembrolizumab; conditioned media; FIG. 1B
Method: Supernatant from the co-culture were plated into a 96-well plate and cytokines were analyzed using the MSD U-PLEX Immuno-Oncology Group 1 (Human) kit (MesoScale Discovery, Custom-made kit). Expressions of IFN-gamma, IL-2 and Granzyme B are shown.
as §1
Supernatant from the co-culture were plated into a 96-well plate and cytokines were analyzed using the MSD U-PLEX Immuno-Oncology Group 1 (Human) kit (MesoScale Discovery, Custom-made kit).

[3] = system: SMARCA4 deleted A549 cells; experiment: Incucyte 3D tumor spheroid growth, A549 cells with HLA-matched T cells; assay type: cell-based, human
Method: Green fluorescence protein (GFP) positive A549 cells were cultured with or without HLA-matched T cells and treated with Formula (I) in the spheroid culture system. Representative figures of the 3D cancer cell spheroids were shown.
The data were generated with SMARCA4 deleted A549 cells.
(§2) GFP-tagged tumor cells were seeded in 96 well Ultra-Low Adherence (ULA) plates (Corning, 7007) (2000 cells/well) and centrifuged briefly (300 g, 30 seconds) to induce cell aggregation. The cells were incubated at 37° C. overnight to allow complete aggregation into spheroids. Following the addition of immune cells with treatment of Pembrolizumab (MedChemExpress, HY-P9902) (100 ug/ml) and/or Formula (I) (100 nM). Three-dimensional tumor spheroid growth was monitored using Sartorius' Incucyte® SX1 Live-Cell Analysis.

[4] = system: SMARCA4 deleted NCI-H1299 cells; experiment: Incucyte 3D tumor spheroid growth, NCI-H1299 cells with human PBMCs; assay type: cell-based; conditions: Formula (I) 100 nM with pembrolizumab 100 ug/ml; FIG. 2C
Method: (§3) The cells were treated with or without Formula (I) and/or pembrolizumab. The data were generated with SMARCA4 deleted NCI-H1299 and SMARCA4 WT NCI-H1975 cells.
as §2
(§4) H1299 and H1975 cells were seeded (500,000 cells/well) in 6 well Tissue Culture Treated plates (Corning 3516) and allowed to aggregate into tumor spheroids for 1-2 hours. Tumor spheroids were treated with 600 ul of Incucyte® Cytolight Lentivirus (Sartorius, 4481) for a MOI of 3 and 8 ug/ml Polybrene Transfection Reagent (Sigma-Aldrich, TR-1003). The cells were incubated at 37° C. overnight. Following incubation, media was removed and replaced with fresh media. GFP expression was monitored using Sartorius' Incucyte® SX1 Live-Cell Analysis System (9600-0031).

[5] = system: SMARCA4 WT NCI-H1975 cells; experiment: Incucyte 3D tumor spheroid growth, NCI-H1975 cells with human PBMCs; assay type: cell-based; conditions: Formula (I) 100 nM with pembrolizumab 100 ug/ml; FIG. 2C
Method: as §3, §2, §4

Cc1ncsc1-c1ccc([C@H](C)NC(=O)[C@@H]2C[C@@H](O)CN2C(=O)[C@@H](c2cc(O[C@@H](C)CN3CC[C@@H](N4CCN5c6cc(-c7ccccc7O)nnc6NC[C@H]5C4)C3)no2)C(C)C)cc1 [Formula (I)]
activated (CD25+) CD3+ T cells [1]: increased | activated (CD25+) CD8+ T cells [1]: increased | Gramzyme B level in co-culture supernatant [2]: higher levels | IFN-g level in co-culture supernatant [2]: higher levels | IL-2 level in co-culture supernatant [2]: higher levels | T-cell mediated A549 killing ([3]; Formula (I) 100 nM in the presence of T cells, quantitated GFP positive cells, FIG. 2A/2B): significantly increased; also recorded: promoted | growth of A549 cancer cells (GFP positive) in 3D spheroid culture ([3]; Formula (I) 100 nM with HLA-matched T cells, FIG. 2A): inhibited growth | combination effect on NCI-H1299 spheroids cultured with PBMCs, compared to single agent treated groups [4]: showed more | combination effect on NCI-H1975 spheroids cultured with PBMCs [5]: the combination effect was not seen
